Data reported in patent US20220315534A1, “BETA ADRENERGIC AGONIST AND METHODS OF USING THE SAME” (Curasen Therapeutics, Inc., priority 2019, published 2022).
Where two headings read alike, the source gives them in different places.

Tests used:
[1] = molecular target: T1, β2-adrenergic receptor (B2-AR) (Homo sapiens, UniProt P07550); assay: cAMP Gs dynamic HTRF assay, cells expressing β2-adrenergic receptor; assay type: cell-based
T1 construct: expressed in transfected cells
Method: (§1) cAMP homogeneous time-resolved fluorescence (HTRF): experimental methods. Compound efficacy is determined using the cAMP Gs dynamic HTRF assay (Cisbio, catalog #62AM4PEC) largely following the manufacturer's instructions, also detailed below.
(§2) Standard serial dilution curves are 10-point, 5-fold dilutions starting from a highest concentration of 10 μM. […] Assay plates are centrifuged at 500×g for 10 seconds. Compounds and IBMX are prepared at 2× final dose to compensate for addition of cells.
(§3) Cell preparation: 1× stimulation buffer, washing PBS (Dulbecco's phosphate-buffered saline, —Mg —Ca; Caisson Labs, catalog #PBL01), assay PBS (Dulbecco's phosphate-buffered saline, +Mg, +Ca; Caisson Labs, catalog #PBL02) and Versene (0.02% EDTA disodium salt solution in PBS without calcium or magnesium; Caisson Labs, catalog #EDL01) are pre-warmed to 37° C. Cells expressing beta-adrenergic receptor were washed in washing PBS to remove growth medium and then released from the surface by incubating with Versene for 5-10 minutes at 37° C. Cells are harvested using assay PBS, counted manually by hemocytometer or by an automated cell counter, pelleted by centrifugation (200×g, 5 minutes) and resuspended in 37° C. 1× stimulation buffer to a final density of […]. 5 μL of the suspended cell solution (7500 cell total) are added to all wells of the 384 well assay plate, the assay plate was covered with an Axygen® plate seal (Corning PCR-SP) and incubated in a humidified 37° C. environment supplemented with 5% CO2 for 30 minutes.
(§4) HTRF reagent addition, reading and data analysis: After 30 minutes of cell stimulation with test compound, the assay plates are centrifuged at 500×g for 10 seconds, and incubation was stopped with the addition of 5 μL cAMP-D2 acceptor, diluted 1:21 in detection and lysis buffer 2 (Cisbio 62CL2FDF) was added to all cells. Subsequently, 5 μL Anti-cAMP-Eu Donor, diluted 1:21 in detection and lysis buffer 2, was added to cells. Plates were sealed and reactions gently ‘vortexed’ at 900 rpm on a Heidolph Titramax 1000 for at least 30 minutes at room temperature. Plates are centrifuged again at 500×g for 10 seconds, and HTRF was measured using a Tecan Spark plate reader at 50 flashes per well. […] Potency estimates (EC50 and pEC50) are derived from the four-parameter nonlinear regression of the concentration-effect curve and an estimate of relative efficacy is determined by comparing the magnitude of the test compound HTRF signal window (min-max dose) with the signal window of the full agonist control, isoproterenol.

[2] = molecular target: T2, β1-adrenergic receptor (B1-AR) (Homo sapiens, UniProt P08588); assay: cAMP Gs dynamic HTRF assay, cells expressing β1-adrenergic receptor; assay type: cell-based
T2 construct: expressed in transfected cells
T2 sequence (P08588 whole entry): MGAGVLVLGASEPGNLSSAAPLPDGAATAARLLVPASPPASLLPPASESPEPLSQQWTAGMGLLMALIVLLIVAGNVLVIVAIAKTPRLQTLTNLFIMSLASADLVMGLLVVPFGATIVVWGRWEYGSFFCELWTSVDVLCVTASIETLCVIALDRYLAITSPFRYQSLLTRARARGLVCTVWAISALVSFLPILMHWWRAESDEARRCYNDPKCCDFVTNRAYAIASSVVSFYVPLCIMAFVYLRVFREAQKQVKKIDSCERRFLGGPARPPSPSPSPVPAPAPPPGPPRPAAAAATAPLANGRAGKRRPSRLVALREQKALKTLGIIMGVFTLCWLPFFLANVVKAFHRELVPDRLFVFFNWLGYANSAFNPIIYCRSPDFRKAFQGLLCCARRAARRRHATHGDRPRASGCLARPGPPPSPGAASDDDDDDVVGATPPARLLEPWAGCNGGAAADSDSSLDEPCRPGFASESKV
Method: as §1, §2, §3, §4

[3] = CHO-K1 (HitHunter) cells, read-out: Average pEC50 [Receptor subtype: B2-AR, Cell type: CHO-K1 (HitHunter)] (converted)
[4] = Table 2, cAMP HTRF, read-out: β2 EC50
[5] = CHO-K1 (HitHunter) cells, read-out: Average pEC50 [Receptor subtype: B1-AR, Cell type: CHO-K1 (HitHunter)] (converted)
[6] = Table 2, cAMP HTRF, read-out: β1 EC50

T1 sequence (P07550 whole entry): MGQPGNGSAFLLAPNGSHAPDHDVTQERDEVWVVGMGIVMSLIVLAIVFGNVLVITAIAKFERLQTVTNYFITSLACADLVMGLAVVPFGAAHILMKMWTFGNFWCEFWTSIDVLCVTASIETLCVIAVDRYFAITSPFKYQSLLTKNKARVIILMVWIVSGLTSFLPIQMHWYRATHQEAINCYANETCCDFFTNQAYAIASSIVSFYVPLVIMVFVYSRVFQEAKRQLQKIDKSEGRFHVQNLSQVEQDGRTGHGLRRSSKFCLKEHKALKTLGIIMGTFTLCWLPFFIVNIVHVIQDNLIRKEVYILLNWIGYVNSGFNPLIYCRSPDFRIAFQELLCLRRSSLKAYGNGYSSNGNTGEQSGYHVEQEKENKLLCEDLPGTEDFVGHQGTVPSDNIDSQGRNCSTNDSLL

| Structure (SMILES) | EC50 [1, 3] [nM] | EC50 [2, 5] [nM] | further results |
| --- | --- | --- | --- |
| CC(C)(C)NC[C@H](O)c1cnc(N)c(Cl)c1 [Compound 02-1] | 10 to 100 | 100 to 1000 | EC50 [1, 4]: 10 to 100 nM; EC50 [2, 6]: 100 to 1000 nM |
| CC(C)(C)NC[C@H](O)c1cnc(N)c(C(F)(F)F)c1 [Compound 02-2] | – | – | Average pEC50 [Receptor subtype: B2-AR; Cell type: CHO-K1 (HitHunter)] ([1]; CHO-K1 (HitHunter) cells): D (D < 6); EC50 [1, 4]: > 1000 nM; Average pEC50 [Receptor subtype: B1-AR; Cell type: CHO-K1 (HitHunter)] ([2]; CHO-K1 (HitHunter) cells): D (D < 6); EC50 [2, 6]: > 1000 nM |
| Cc1cc(C(O)CNC(C)(C)C)nnc1N (centres unmarked) [Compound 02-3] | 100 to 1000 | > 1000 | – |
| Cc1nc([C@@H](O)CNC(C)(C)C)cnc1N [Compound 02-4] | > 1000 | 100 to 1000 | – |
| CC(C)(C)NC[C@@H](O)c1cccc(N)n1 [Compound 02-6] | 10 to 100 | 100 to 1000 | – |
| CC(C)(C)NC[C@H](O)c1cccc(O)n1 [Compound 02-7] | > 1000 | > 1000 | – |
| CC(C)(C)NC[C@@H](O)c1cccc(O)n1 [Compound 02-8] | > 1000 | > 1000 | – |
| Cc1nc(N)c(Cl)cc1[C@H](O)CNC(C)(C)C [Compound 02-9] | 10 to 100 | 100 to 1000 | – |
| Cc1nc(N)c(C#N)cc1[C@@H](O)CNC(C)(C)C [Compound 02-10] | 100 to 1000 | > 1000 | – |
| Cc1nc(N)c(C#N)cc1[C@H](O)CNC(C)(C)C [Compound 02-11] | > 1000 | > 1000 | – |
| Cc1cc(N)nc([C@H](O)CNC(C)(C)C)c1 [Compound 02-12] | > 1000 | > 1000 | – |
| Cc1cc(N)nc([C@@H](O)CNC(C)(C)C)c1 [Compound 02-13] | 10 to 100 | 10 to 100 | – |
| Cc1nc(N)c(Cl)cc1[C@@H](O)CNC(C)(C)C [Compound 02-14] | < 10 | 10 to 100 | – |
| CC(C)(C)NC[C@H](O)c1cccc2[nH]c(=O)ccc12 [Compound 04-1, (R)-5-(2-(tert-butylamino)-1-hydroxyethyl)quinolin-2(1H)-one] | < 10 | < 10 | – |
| Cn1c(=O)ccc2c([C@@H](O)CNC(C)(C)C)cccc21 [Compound 04-2] | < 10 | 10 to 100 | – |
| CC(C)(C)NC[C@H](O)c1cccc2oc(=O)ccc12 [Compound 04-3] | 100 to 1000 | > 1000 | – |
| CC(C)(C)NC[C@H](O)c1ccc(F)c2[nH]c(=O)ccc12 [Compound 04-4] | < 10 | < 10 | – |
| CC(C)(C)NC[C@H](O)c1nccc2[nH]c(=O)ccc12 [Compound 04-5, (S)-5-(2-(tert-butylamino)-1-hydroxyethyl)-1,6-naphthyridin-2(1H)-one] | > 1000 | > 1000 | – |
| CC(C)(C)NC[C@H](O)c1ccc2c(n1)OCCO2 [Compound 04-7] | 10 to 100 | 10 to 100 | – |
| CC(C)(C)NC[C@H](O)c1ccc2c(n1)CCC2 [Compound 04-9] | 10 to 100 | 100 to 1000 | – |
| CC(C)(C)NC[C@H](O)c1ccc2c(n1)NCCO2 [Compound 04-10] | 10 to 100 | 10 to 100 | – |

| Structure (SMILES) | EC50 [1, 3] [nM] | EC50 [2, 5] [nM] | further results |
| --- | --- | --- | --- |
| CC(C)(C)NC[C@H](O)c1ccc2c(n1)NCC2 [Compound 04-11] | 10 to 100 | 10 to 100 | – |
| COc1ccc(C[C@@H](C)NC[C@H](O)c2ccc3c(n2)NCCO3)cc1 [Compound 04-12] | 10 to 100 | 100 to 1000 | – |
| CC(C)(C)NC[C@H](O)c1ccnc2[nH]c(=O)ccc12 [Compound 04-13] | < 10 | 10 to 100 | – |
| CC(C)(C)NC[C@@H](O)c1cccc2oc(=O)ccc12 [Compound 04-14] | < 10 | 100 to 1000 | – |
| Cn1c(=O)ccc2c([C@H](O)CNC(C)(C)C)cccc21 [Compound 04-15] | 100 to 1000 | > 1000 | – |
| CC(C)(C)NC[C@@H](O)c1ccc(F)c2[nH]c(=O)ccc12 [Compound 04-16] | 10 to 100 | 100 to 1000 | – |
| Cc1cc2c([C@H](O)CNC(C)(C)C)cccc2[nH]c1=O [Compound 04-17] | > 1000 | 100 to 1000 | – |
| Cc1cc2c([C@@H](O)CNC(C)(C)C)cccc2[nH]c1=O [Compound 04-18] | 10 to 100 | < 10 | – |
| CC(C)(C)NC[C@H](O)c1cccc2c1OCC(=O)N2 [Compound 04-19] | < 10 | < 10 | – |
| CC(C)(C)NC[C@H](O)c1cccc2[nH]cnc12 [Compound 04-24] | 10 to 100 | 10 to 100 | – |
| CC(C)(C)NC[C@H](O)c1cccc2[nH]ncc12 [Compound 04-25] | < 10 | < 10 | – |
| CC(C)(C)NC[C@H](O)c1cccc2cn[nH]c12 [Compound 04-26] | 10 to 100 | 10 to 100 | – |
| Cn1ncc2c([C@@H](O)CNC(C)(C)C)cccc21 [Compound 04-27] | 10 to 100 | < 10 | – |
| Cn1ncc2c([C@H](O)CNC(C)(C)C)cccc21 [Compound 04-28] | > 1000 | 100 to 1000 | – |
| Cc1noc2cccc([C@@H](O)CNC(C)(C)C)c12 [Compound 04-29] | > 1000 | 100 to 1000 | – |
| Cc1noc2cccc([C@H](O)CNC(C)(C)C)c12 [Compound 04-30] | – | > 1000 | – |
| CC(C)(C)NC[C@H](O)c1ccc2ccc(C(F)(F)F)cc2n1 [Compound 04-36] | < 10 | < 10 | – |
| CC(C)(C)NC[C@H](O)c1ccc2ncccc2c1 [Compound 04-38] | < 10 | 100 to 1000 | – |
| CC(C)(C)NC[C@H](O)c1ccc2cccc(Cl)c2n1 [Compound 04-39] | < 10 | < 10 | – |
| CC(C)(C)NC[C@@H](O)c1ccc2cccc(Cl)c2n1 [Compound 04-40] | 10 to 100 | 10 to 100 | – |
| CC(C)(C)NC[C@H](O)c1ccc2cccc(F)c2n1 [Compound 04-41] | < 10 | < 10 | – |

| Structure (SMILES) | EC50 [1, 3] [nM] | EC50 [2, 5] [nM] | further results |
| --- | --- | --- | --- |
| CC(C)(C)NC[C@@H](O)c1ccc2cccc(F)c2n1 [Compound 04-42] | 100 to 1000 | 100 to 1000 | – |
| CC(C)(C)NC[C@H](O)c1ccc2[nH]ncc2c1 [Compound 04-48] | > 1000 | > 1000 | – |
| Cn1ncc2cc([C@@H](O)CNC(C)(C)C)ccc21 [Compound 04-49] | > 1000 | > 1000 | – |
| Cn1ncc2cc([C@H](O)CNC(C)(C)C)ccc21 [Compound 04-50] | 10 to 100 | 100 to 1000 | – |
| Cc1noc2ccc([C@@H](O)CNC(C)(C)C)cc12 [Compound 04-51] | > 1000 | > 1000 | – |
| Cc1noc2ccc([C@H](O)CNC(C)(C)C)cc12 [Compound 04-52] | 10 to 100 | 100 to 1000 | – |
| CC(C)(C)NC[C@H](O)c1ccc2[nH]c3ccccc3c2c1 [Compound 04-54] | 100 to 1000 | > 1000 | – |
| COc1ccc(CC(C)(C)NC[C@H](O)c2cccc3[nH]c4ccccc4c23)cc1 [Compound 04-55] | < 10 | 10 to 100 | – |
| CC(C)NC[C@H](O)c1cccc2[nH]c3ccccc3c12 [Compound 04-56] | < 10 | < 10 | – |
| CC(C)(C)NC[C@H](O)c1cccc2[nH]c3ccccc3c12 [Compound 04-57] | < 10 | < 10 | – |
| O[C@@H](CNC1(C(F)(F)F)CC1)c1cccc2cccnc12 [Compound 04-67] | > 1000 | > 1000 | – |
| O[C@H](CNC1(C(F)(F)F)CC1)c1cccc2cccnc12 [Compound 04-68] | > 1000 | > 1000 | – |
| CC(C)(C)NC[C@H](O)c1cccc2c(C(F)(F)F)ccnc12 [Compound 04-69] | 100 to 1000 | 10 to 100 | – |
| CC(C)(C)NC[C@@H](O)c1cccc2c(C(F)(F)F)ccnc12 [Compound 04-70] | < 10 | – | – |
| CC(C)(C)NC[C@@H](O)c1cccc2c(C#N)ccnc12 [Compound 04-77] | > 1000 | – | – |
| CC(C)(C)NC[C@H](O)c1cccc2c(C#N)ccnc12 [Compound 04-78] | – | 100 to 1000 | – |
| CC(C)(C)NC[C@@H](O)c1c(F)ccc2cccnc12 [Compound 04-89] | – | > 1000 | – |
| CC(C)(C)NC[C@H](O)c1nc(C(F)(F)F)cc2ccccc12 [Compound 04-91] | – | > 1000 | – |
| CC(C)(C)NC[C@H](O)c1ccc2c(c1)CC(=O)N2 [Compound 04-121] | > 1000 | – | – |
